From patent US6548082B1, “Methods for treating apnea and apnea disorders using optically pure R(+) ondansetron” (Sepracor Inc., priority 1999, dated 2003)
Read-outs that look alike come from different tables or passages of the source.

Experiments:
mongrel dogs [1] = test: Electrophysiological (EKG) effects of ondansetron enantiomers and racemate in dogs, rising cumulative doses; conditions: for Death or survival of dogs during or shortly after the experiment: four dogs per treatment, 0-4.0 mg/kg cumulative
Description: (§1) An investigation was conducted to determine the effect of racemic ondansetron and the R(+)- and S(−)-enanatiomers of ondansetron in causing cardiac arrhythmias (cardiotoxicity) resulting from a lengthening of the cardiac action potential.
(§2) The order of administration was randomized to ensure that each dog received only one treatment.

mongrel dogs [2] = conditions: dog, in vivo
Description: as §1, §2

Structure (SMILES): Cc1nccn1CC1CCc2c(c3ccccc3n2C)C1=O (racemic) [R,S-Ondansetron, ondansetron]
- Prolongation of QTc interval, compared among treatments (mongrel dogs [1]; dogs, comparison in words of the three treatments): most prolonged
- Death or survival of dogs during or shortly after the experiment (mongrel dogs [1]): survived

Structure (SMILES): Cc1nccn1C[C@H]1CCc2c(c3ccccc3n2C)C1=O [R(+)-Ondansetron, R(+) ondansetron]
- Prolongation of QTc interval, compared among treatments (mongrel dogs [2]): shortest
- Cardiotoxicity, compared among treatments (mongrel dogs [1]; conclusion from QTc and mortality data in dogs): less cardiotoxicity than either S(−) ondansetron or racemic ondansetron
- Death or survival of dogs during or shortly after the experiment (mongrel dogs [1]): survived

Structure (SMILES): Cc1nccn1C[C@@H]1CCc2c(c3ccccc3n2C)C1=O [S(−)-Ondansetron, S(−) ondansetron]
- Prolongation of QTc interval, compared among treatments (mongrel dogs [2]): most prolonged
- QTc Interval (mongrel dogs [2]; 4 mg/kg): 0.44 ± 0.03 s
